Patent publication US6558900B2, “Regulation of apoptosis and in vitro model for studies thereof” (Emory University, priority 1996, dated 2003)
Entries after “also recorded” stand apart in the source; their conditions may differ.

Columns and labels:
[1] = system: hamster liver nuclei; experiment: DNA fragmentation assay (HeLa S-100 incubated with hamster liver nuclei); format: biochemical; settings: 1 mM nucleotide, 37° C., 2 hr
Procedure: FIGS. 1A-1D illustrate dATP-dependent activation of CPP32 and DNA fragmentation in vitro. Aliquots (10 μl) of HeLa cell S-100 (50 μg) were incubated alone (lane 1), in the presence of 1 mM ATP (lane 2), or in the presence of 1 mM dATP (lane 3) at 30° C. for 1 hr in a final volume of 20 μl of buffer A. FIG. 1A, samples were subjected to SDS-PAGE and transferred to a nitrocellulose filter, probed with a monoclonal anti-CPP32 antibody, and the antigen/antibody complex was visualized by the ECL method. The filter was exposed to Kodak X-OMAT AR X-ray film for 1 min. In FIG. 1B, an aliquot of 10 μl of in vitro translated, ^35S-labeled PARP was added to each reaction. After 5 min, the samples were subjected to SDS-PAGE and transferred to a nitrocellulose filter. The filter was exposed to film for 2 hr at room temperature. In FIG. 1C, a 5 μl aliquot of in vitro translated, ^35S-labeled SREBP-2 was added to each reaction. After incubation at 30° C. for 30 min, the samples were subjected to SDS-PAGE, the gel was dried and exposed to film for 2 hr at room temperature. […]
FIGS. 2A-2B illustrate the nucleotide specificity for in vitro activation of CPP32 and DNA fragmentation. […] The DNA was isolated, analyzed by 2% agarose gel electrophoresis and visualized by ethidium bromide staining. […]

[2] = system: CPP32; experiment: Activation of endogenous CPP32 in HeLa cell S-100 (Western blot; cleavage of 35S-labeled PARP and SREBP-2); format: biochemical, human; settings: 1 mM nucleotide, 30° C., 1 hr, Western blot
Procedure: FIGS. 1A-1D illustrate dATP-dependent activation of CPP32 and DNA fragmentation in vitro. Aliquots (10 μl) of HeLa cell S-100 (50 μg) were incubated alone (lane 1), in the presence of 1 mM ATP (lane 2), or in the presence of 1 mM dATP (lane 3) at 30° C. for 1 hr in a final volume of 20 μl of buffer A. FIG. 1A, samples were subjected to SDS-PAGE and transferred to a nitrocellulose filter, probed with a monoclonal anti-CPP32 antibody, and the antigen/antibody complex was visualized by the ECL method. The filter was exposed to Kodak X-OMAT AR X-ray film for 1 min. In FIG. 1B, an aliquot of 10 μl of in vitro translated, ^35S-labeled PARP was added to each reaction. After 5 min, the samples were subjected to SDS-PAGE and transferred to a nitrocellulose filter. The filter was exposed to film for 2 hr at room temperature. In FIG. 1C, a 5 μl aliquot of in vitro translated, ^35S-labeled SREBP-2 was added to each reaction. After incubation at 30° C. for 30 min, the samples were subjected to SDS-PAGE, the gel was dried and exposed to film for 2 hr at room temperature. In FIG. 1D, a 50 μlaliquot of HeLa cell S-100 (250 μg) was incubated with 6 μl Hamster Liver nuclei in the absence (lane 1), or presence of 1 mM ATP (lane 2) or dATP (lane 3) for 2 hr at 37° C. in a final volume of 60 μl of buffer A. DNA was isolated as described in the Examples and size-separated by agarose gel electrophoresis (2% agarose), and the DNA was visualized by ethidium bromide staining.
Activation of CPP32 and DNA fragmentation are two well characterized biochemical markers of apoptosis and its initiation. With the goal of producing an in vitro system that duplicates apoptosis, we prepared 100,000×g cytosolic supernatant (S-100) from suspension cultures of HeLa cells. The activation of CPP32 is the result of cleavage of its 32 kDa precursor into the 20 kDa NH2-terminal fragment and 11 kDa COOH-terminal fragment [Nicholson et al. (1995) supra], thus the activation of CPP32 in the HeLa cell S-100 was monitored by Western blot analysis using a monoclonal antibody against the 20 kDa fragment of CPP32 (FIG. 1A). The enzymatic activity of CPP32 was assayed by measuring the cleavage of two ^35S-labeled substrates, PARP (FIG. 1B) and SREBP-2 (FIG. 1C). DNA fragmentation was assayed by incubating the HeLa cell S-100 with nuclei isolated from hamster liver followed by genomic DNA extraction and analysis by agarose gel electrophoresis. […] The sizes of the cleaved products of PARP and SREBP-2 were the same as observed in cells undergoing apoptosis [Kaufmann et al. (1993) Cancer Res. 53, 3976-3985; Wang et al. (1996) supra]. […]

[3] = system: HeLa cells; experiment: Staurosporine treatment of HeLa cells: cytochrome c in S-cytosol and PARP cleavage; format: cell-based, human; settings: 1 μM, 6 hr
Procedure: HeLa cells were treated as described in FIG. 9. On day 2, staurosporine at a final concentration of 1 μM was added to the medium as indicated. After incubation at 37° C. for 6 hr, the cells were harvested and S-cytosols were prepared as described in FIG. 9. In FIG. 10A, a 50 μg aliquot of HeLa cell S-100 as in FIGS. 1-7 (lane 1), or S-cytosol from HeLa cells (lane 2), or S-cytosol from HeLa cells treated with staurosporine for 6 hr. In lane 4, aliquot of 0.2 μg of Apaf-2 purified through Mono S column step. Proteins were separated using 15% SDS-PAGE, transferred to a nitrocellulose filter, and probed with a monoclonal anti-cytochrome c antibody and the antigen/antibody complex was visualized by the ECL method as described herein. Kodak X-OMAT AR X-ray film was exposed for 15 seconds. The arrow denotes the position of cytochrome c; X denotes protein bands cross-reacting with this antibody. In FIG. 10B, aliquots containing 4.5 μg of S-cytosol from HeLa cells (−staurosporine) or HeLa cells treated with 1 μM staurosporine for 6 hr (+staurosporine) were incubated with 10 μl aliquots of in vitro translated, 35S-labeled PARP for 30 min at 30° C. in a volume of 20 μl of buffer A. Samples were then subjected to 12% SDS-PAGE, transferred to a nitrocellulose filter, and film was exposed for 4 hr at room temperature.
HeLa cells were treated with staurosporine. […]

[4] = system: U937 cells; experiment: Staurosporine treatment of human monoblastic U937 cells; format: cell-based
[5] = system: variety of cell types; settings: cited from earlier work

Row | Compound | DNA fragmentation in hamster liver nuclei [1] | activation of CPP32 in HeLa cell S-100 [2] | activation of endogenous CPP32 detected by cleavage of PARP [3] | cytochrome c in S-cytosol ([3]; vs non-treated cells) | cytochrome c in cytosol / CPP32 activation [4] | initiation of apoptosis [5]
1 | Nc1ncnc2c1ncn2[C@@H]1O[C@H](COP(=O)(O)OP(=O)(O)OP(=O)(O)O)[C@@H](O)[C@H]1O [ATP] | Such fragmentation did not occur | no activation of CPP32 was observed |  |  |  | 
2 | CN[C@@H]1C[C@H]2O[C@@](C)([C@@H]1OC)n1c3ccccc3c3c4c(c5c6ccccc6n2c5c31)C(=O)NC4 [staurosporine] |  |  | resulted in activation of the endogenous CPP32 | increased release of cytochrome c to the cytosol; also recorded: markedly elevated cytochrome c; also recorded: increased cytosolic cytochrome c | The same phenomenon was also observed | potent apoptosis inducer
